From patent US20220339127A1, “DRUGGABLE TARGET TO TREAT RETINAL DEGENERATION” (The United States of America,as represented by the …, priority 2019, published 2022)
“Also recorded” adds a separate entry of the source.

Experiments:
Assay type in all cases: cell-based, human
iRPE cells [1] = experiment: A23187 cytotoxicity on iRPE cells (CellTitrGlo ATP release)
From the text: It was hypothesized that the loss of epithelial phenotype/RPE dedifferentiation is a key AMD cellular phenotype and easier to set up for a high throughput screen. Drugs that would suppress RPE dedifferentiation and recover the epithelial phenotype in cells might also work to rescue additional AMD cellular endophenotypes. Drug screen was designed using a calcium-ionophore A23187 instead of CC-HS serum, for three reasons: 1) CC-HS lost activity in liquid handler tubing used for medium change, likely because active complement proteins were absorbed on the walls of liquid handler tubes; 2) Similar to A23187, CC-HS treatment of iRPE also led to a defect in intracellular calcium homeostasis.
10 μM concentration of A23187 was selected for the drug screening, because it provided a bigger margin for cell death rescue. A commercially available library of pharmaceutically active compounds (LOPAC) with 1280 drugs was used for the screen at two different concentrations 9.2 μM and 46 μM. […]

iRPE cells [2] = experiment: Proteotoxic high throughput screen (LOPAC) and follow up screen: survival of A23187 treated iRPE; conditions: seven-point dose curve; A23187 2.5, 5, 10 μM; two iRPE samples
Protocol: 10 μM concentration of A23187 was selected for the drug screening, because it provided a bigger margin for cell death rescue. […] Drug treatment along with the stressor, 10 μM A23187 were added on to iRPE cells matured in 384-well plates and cell death was scored 48 hours later by ATP release using the CellTitrGlo assay.
To distinguish false positives from the real signal, a follow up screen on all of the 45 drugs using iRPE derived from two different iPSC lines was performed. The follow up screen was performed at three different A23187 concentrations (2.5, 5, 10 μM) and with seven different concentrations of drugs ranging from 10 nM-1 mM (FIG. 13D-F). […] Overall, the HTS screen provided two drugs for testing in the in vitro AMD model.

AMPK = experiment: Phospho-AMPK ELISA in iPSC-RPE of L-ORD patients and unaffected siblings; conditions: for p-AMPK levels: 0% serum, 2 mM AICAR or 500 nM BAM15
Protocol: Thus, in FIG. 16b iPSC-RPE were incubated with recombinant CTRP5 globular form (0.2 μg/mL gCTRP5) for 30 min in the presence (+) and absence (−) of serum to evaluate its role in AMPK signaling.
To better elucidate the ADIPOR1-CTRP5 (receptor-ligand) interaction, […] a ligand dose response curve was performed (in serum free media) by exogenously adding increasing concentrations of recombinant full length CTRP5 (FIG. 16c).
AMPK is a sensitive indicator of the cell energy status and is canonically activated by the levels of AMP or ATP (Hardie and Lin, 2017). Therefore, the AMPK activity (in serum free media) of sibling and patient iPSC-RPE under conditions (increased AMP:ATP ratio) known to stimulate AMPK phosphorylation was characterized (FIG. 16d). iPSC-RPE were incubated in serum deprived media for 5 hours (Park et al., 2009) followed by 30 mins exposure to AICAR (an AMP analogue) or BAM15 (a mitochondrial uncoupler to reduce ATP production).
Metformin treatment consisted of 3 mM metformin added to the apical and basal media for 1½- 2 weeks.

ABCA1 = experiment: Bodipy lipid deposits in CC-HS treated Stargardt iRPE with ABCA1 activator; conditions: 10 μM
From the text: 115(36): p. 9014-9019]. […] To further understand the ABCA4 driven mechanism in disease pathogenesis, this example focuses on ABCA1- an ABCA4 homolog, involved in cholesterol transport. […] Journal of Biological Chemistry, 2013. 288(48): p. 34414-34426, Tanaka, A. R., et al., Human ABCA1 contains a large amino-terminal extracellular domain homologous to an epitope of Sjögren's Syndrome. Biochemical and biophysical research communications, 2001. 283(5): p. 1019-1025, Storti, F., et al., Impaired ABCA1/ABCG1-mediated lipid efflux in the mouse retinal pigment epithelium (RPE) leads to retinal degeneration. Elife, 2019. 8: p. e45100.]. To determine if both ABCA proteins work through the lipid handling pathway, the effects of modulating ABCA1 expression on changes the disease phenotype in Stargardt RPE cells was observed. An shRNA knockdown of ABCA1 in ABCA4 iRPE cells was performed and the cells were treated with CC-HS. […] (FIG. 34A-G), In contrast, lipid accumulation defects in Stargardt RPE cells were rescued by ABCA1 overactivation using GW3965 (ABCA1 activator) (FIG. 34 H-N).

iRPE monolayer = experiment: Transepithelial resistance (TER) of CC-HS treated iRPE monolayer; conditions: compstatin 10 μM and PMX053 10 μM used together in CC-HS
From the text: Lastly, it was checked if the drugs rescued mature RPE phenotype and RPE functionality.

iRPE cells [3] = experiment: Sub-RPE APOE deposits in CC-HS treated iRPE with receptor blockers; conditions: concurrent use of compstatin 10 μM (C3aR1 blocker) and PMX053 10 μM (C5aR1 blocker) in CC-HS
From the text: It was hypothesized that CC-HS triggered AMD cellular phenotypes in iRPE cells are generated by the anaphylatoxin arm of the complement pathway via C3a-C3aR1 and C5a-05aR1 signaling induced intracellular inflammation (Fernandez-Godino and Pierce 2018). RNAseq confirmed the expression of both receptors in iRPE cells with ˜30× higher expression in of C5aR1 as compared to C3aR1 (FIG. 10A). Furthermore, the expression of both receptors increases with CC-HS treatment. Western blot confirmed C3aR1 and C5aR1 receptors localization in the membrane fraction of iRPE cells (FIG. 2A). […] To verify that CC-HS activates C3aR and C5aR signaling in iRPE cells, samples were checked for phosphorylation of AKT and ERK1/2, the two key kinases downstream of C3aR1 and C5aR1 receptors (Hajishengallis and Lambris 2010; Zhu et al 2015 Mol Vis; Busch et al 2017 Front. In Immu.). […] Furthermore, consistent with the predominant apical localization of C3aR1 and C5aR1, apical only treatment of CC-HS caused a 4.5-5×TER drop (p<10^−16), similar to the combined apical/basal treatment of CC-HS. In contrast, basal only treatment of CC-HS resulted only in a 2×TER drop (p<10^−16) (FIG. 2H). To further dissect the role of C5aR1 and C3aR1 signaling in inducing AMD cellular phenotypes in iRPE cells, a depleted sera and receptor blocker strategy was employed. […]

[4] = unaffected siblings, 5h 0% serum, 30 min, 25 ug/mL

CNc1ccc2oc(C[C@H]3O[C@@]4(CC[C@H]3C)O[C@H]([C@H](C)C(=O)c3ccc[nH]3)[C@H](C)C[C@H]4C)nc2c1C(=O)O [A23187]
cell death (iRPE cells [1]; 2.5 μM A23187, 48 hours): 50%
toxicity to iRPE cells (iRPE cells [1]; 96 hours, 2.5, 10, 25 μM A23187): completely toxic; also recorded: cytotoxic

COc1cc2ncnc(Nc3cccc(Cl)c3)c2cc1OC [AG-1478]
cytoprotective activity in follow up screen (iRPE cells [2]): linear response the seven-point dose curve and reproducibility between two different iRPE samples

NC(=O)c1ncn([C@@H]2O[C@H](CO)[C@@H](O)[C@H]2O)c1N [AICAR]
p-AMPK levels (AMPK; L-ORD patient RPE, 30 min): insensitive
p-AMPK levels (AMPK; unaffected siblings, 30 min): stimulates further phosphorylation of AMPK; also recorded: further elevation in AMPK levels

Fc1ccccc1Nc1nc2nonc2nc1Nc1ccccc1F [BAM15]
p-AMPK levels (AMPK; L-ORD patient RPE, 30 min): insensitive
p-AMPK levels (AMPK; unaffected siblings, 30 min): further stimulates phosphorylation of AMPK; also recorded: further elevation in AMPK levels

O=C(O)Cc1cccc(OCCCN(Cc2cccc(C(F)(F)F)c2Cl)CC(c2ccccc2)c2ccccc2)c1 [GW3965]
intra/sub-RPE bodipy-positive lipid deposits (ABCA1): rescued
intra/sub-RPE bodipy-positive lipid deposits (ABCA1; listed as GW 3965): reduced lipid deposit

CC[C@H](C)[C@H](N)C(=O)N[C@H]1CSSC[C@@H](C(=O)N[C@H](C(N)=O)[C@@H](C)O)NC(=O)[C@H](CCCN=C(N)N)NC(=O)[C@H](Cc2cnc[nH]2)NC(=O)[C@H](Cc2cnc[nH]2)NC(=O)CNC(=O)[C@H](Cc2c[nH]c3ccccc23)NC(=O)[C@H](CC(=O)O)NC(=O)[C@H](CCC(N)=O)NC(=O)[C@H](C(C)C)NC(=O)[C@H](C(C)C)NC1=O [compstatin]
higher iRPE monolayer TER compared to CC-HS treated samples (iRPE monolayer): 5 ×
lower sub-RPE APOE deposits compared to CC-HS plus vehicle (iRPE cells [3]): 2 ×

B1: recombinant full length CTRP5: recombinant full length CTRP5 (protein, UniProt Q9BXJ0 1-243, looked up)
chain: MRPLLVLLLLGLAAGSPPLDDNKIPSLCPGHPGLPGTPGHHGSQGLPGRDGRDGRDGAPGAPGEKGEGGRPGLPGPRGDPGPRGEAGPAGPTGPAGECSVPPRSAFSAKRSESRVPPPSDAPLPFDRVLVNEQGHYDAVTGKFTCQVPGVYYFAVHATVYRASLQFDLVKNGESIASFFQFFGGWPKPASLSGGAMVRLEPEDQVWVQVGVGDYIGIYASIKTDSTFSGFLVYSDWHSSPVFA
modifications: full-length
change in p-AMPK levels (AMPK; L-ORD patient RPE, similar concentrations, serum free): had no effect on AMPK activity; also recorded: no measurable change
p-AMPK level (AMPK; [4]): 47.89%±0.13
reduction in p-AMPK levels (AMPK; [4]): 50%
